Experimental findings from US12551461B2, “Compositions of triglycerides and uses thereof” (Ultragenyx Pharmaceutical Inc., priority 2013, dated 2026) are described below.

The nature of data set [1]: Storage stability of triheptanoin oil. It counts as physicochemical. Conditions: stored at room temperature and protected from light. The source says:
In some embodiments, the triheptanoin oil as described herein is a colorless oil of low viscosity and is odorless and tasteless. Triheptanoin oil as described herein is typically stored at room temperature and protected from light, and its stability can exceed 24 months under such conditions.

The nature of data set [2]: Single dose study, PK profile of triheptanoin and metabolites. It counts as in vivo. Conditions: single oral gavage dose, Day 1, mini-pigs. As for the experimental part: Single dose study of each arm with full pharmacokinetics (PK) profile through 48 hours post dose was performed to determined when metabolites return to baseline (one week washout between each arm) as well as if acute release of gastrin and cholesystokinin (CCK) hormones cause spasmodic stomach contractions. Blood samples were collected from each arm 0-90 min plus anytime outside this window if gastric distress observed.
More specifically, animals (n=3/sex) were fasted prior to dose and fed 4 hrs post dose. Blood samples for PK analysis of triheptanoin and metabolites were collected pre-dose through 48 hrs post dose.
In FIGS. 1-21, animals were administered a single oral gavage dose level of a triheptanoin oil sample (i.e., the oil) or exemplary solid samples comprising triheptanoin oil in accordance with the present invention. The two exemplary solid compositions comprise 1) 60%:20%:20% of triheptanoin oil:Cab-O-Sil:cellulose acetate (i.e., the Powder-ER); and 2) 80%:20% of triheptanoin oil:Cab-O-Sil (i.e., the Powder), respectively.

A short description of data set [3]: Multiple dose study, metabolite PK profiles Day 1 and Day 7.
A further data set has as its system mini-pigs. Briefly: Multiple dose study, vomiting and gastric distress observations.

“Also recorded” adds a separate entry of the source.

Take `CCCCCCC(=O)OCC(COC(=O)CCCCCC)OC(=O)CCCCCC` [triheptanoin oil, propane-1,2,3-triyl triheptanoate]: the stability result in data set [1] is listed as “exceed 24 months”. Besides, the “levels of ketones (C4-OH, C5-OH)” value in data set [2] was “comparable levels of ketones”. Also, in data set [3] (Day 1 and Day 7, mini-pigs), the Propionylglycine levels entry is reported as “essentially zero” and the pimelic acid levels entry is “highest amount of pimelic acid”. Moreover, in data set [3] (mini-pigs), the “conversion of triheptanoin to C7” value was “All triheptanoin oil was converted to C7” and the triheptanoin levels entry is “no triheptanoin values”. Also, in the data set with mini-pigs, the “vomiting or gastric distress observed” value was “Day 1: Animal #6501 vomited ˜3 hours post dose; also recorded: Day 1: Animal #6516 vomited ˜3 hours post dose; also recorded: Day 5: Animal #6509 gastric distressed observed”.
